Laboratory results as given in patent publication EP4464714A1, “SCREENING METHOD FOR CELL-REPELLING PEPTIDES” (Karlsruher Institut für Technologie, priority 2023, dated 2024).
“Also recorded” adds a separate entry of the source. Where two headings read alike, the source gives them in different places.

Experiments:
[1] = system: SW620 colorectal cancer cells expressing the TOP-GFP construct; assay: High-throughput screening for cell repulsion/adhesion on a high-density peptide chip, fluorescence detection; format: cell-based; conditions: incubated for 24 hours on the peptide chip; for cell adhesion / cell repulsion on peptide spots, measured by the strength of the fluorescent signal: 1×10^7 cells in 3 ml, 30 µm × 30 µm spots
[2] = system: SW620 colorectal cancer cells expressing the TOP-GFP construct; assay: Formation of cell patterns on alternating peptide patterns, continuous fluorescence detection (live cell imaging); format: cell-based; conditions: patterns of 3 sp × 3 sp and 1 sp (30 µm); up to 24 hours of incubation; Fig. 10
Description: The settlement of cells on alternating patterns of the cell-repellent and cell-adhesive peptides IAMTPPNATEASKPQ and FLCSLFAPVCLDRPI, respectively, were examined over time (Fig. 10). […] Peptide patterns in the form of the letters KI were made of squares of 3 sp × 3 sp. The cellular patterns are clearly distinguishable as long as the area of the cell-repellent peptide has a size of 30 µm in diameter (1 sp). To follow the formation of such cellular patterns, the behaviour of cells was examined over time (continuous fluorescence detection). Fig. 10b, 10c, 10d and 10e show the different states of the same chip fragment with cell-repellent peptides at different incubation times. Relatively quickly, in the first minutes after seeding, cells randomly distribute over the entire surface (Fig. 10b) and start to form clusters (Fig. 10c), which adhere to the bottom. After that, the cell clusters leave the area of peptides with cell repulsion (Fig. 10d). […]
On the day of incubation, cells were detached using Accutase followed by selection in serum-containing medium (DMEM). […] After 24 hours, the plates were either analysed using confocal microscopy or fixed.
For imaging of the cells, a Zeiss LSM800 confocal microscope was used. […] The microscopic slide was then transferred to a live cell incubation chamber (37°C) and observed via continuous fluorescence detection for a period of 24 hours.

pancreatic tumour = conditions: human (1) or murine (2) background; Matzke-Ogi et al. 2016; cited from earlier work
CD44v6 [3] = conditions: human (1) background; Matzke-Ogi et al. 2016; cited from earlier work
CD44v6 [4] = conditions: murine (2) background; Matzke-Ogi et al. 2016; cited from earlier work

AIKNLPPPTKGQEGS
cell adhesion / cell repulsion on peptide spots, measured by the strength of the fluorescent signal [1]: strongest cell-repellent properties

EVK
cell adhesion / cell repulsion on peptide spots, measured by the strength of the fluorescent signal [1]: repellent motif for cells

FLCSLFAPVCLDRPI
settlement of cells on alternating peptide patterns over time [2]: cell-adhesive

HPGSAVSASNAIKNL
cell adhesion / cell repulsion on peptide spots, measured by the strength of the fluorescent signal [1]: strongest cell-repellent properties

IAMTPPNATEASKPQ
settlement of cells on alternating peptide patterns over time [2]: cell-repellent

KENGDKKIVPKKKKP
cell pattern (filling of peptide spots) ([1]; Fig. 2): well-defined island shape

KEQWFGNRWHEGYR
pancreatic tumour growth and metastasis (pancreatic tumour): inhibit pancreatic tumour growth and metastasis
co-receptor function of CD44v6 of the receptor tyrosine kinase MET (CD44v6 [3]): inhibit the co-receptor function of CD44v6

NGWQG
pancreatic tumour growth and metastasis (pancreatic tumour): inhibit pancreatic tumour growth and metastasis
co-receptor function of CD44v6 of the receptor tyrosine kinase MET (CD44v6 [4]): inhibit the co-receptor function of CD44v6

NRWHE
pancreatic tumour growth and metastasis (pancreatic tumour): inhibit pancreatic tumour growth and metastasis
co-receptor function of CD44v6 of the receptor tyrosine kinase MET (CD44v6 [3]): inhibit the co-receptor function of CD44v6

PCQRETPEGAEAKP [SEQ ID No. 13]
cell adhesion / cell repulsion on peptide spots, measured by the strength of the fluorescent signal [1]: repulsive

QETWF
cell adhesion / cell repulsion on peptide spots, measured by the strength of the fluorescent signal [1]: top ten cell-repellent peptides

QETWFQNGNQGKN [modified peptide of …, replacement of the amino acid W by N]
cell adhesion / cell repulsion on peptide spots, measured by the strength of the fluorescent signal [1]: maximum cell repulsion

QETWFQNGWQGKNP
pancreatic tumour growth and metastasis (pancreatic tumour): inhibit pancreatic tumour growth and metastasis
co-receptor function of CD44v6 of the receptor tyrosine kinase MET (CD44v6 [4]): inhibit the co-receptor function of CD44v6

QNGNQGKN
cell adhesion / cell repulsion on peptide spots, measured by the strength of the fluorescent signal [1]: strong cell repulsion

SDKKPVAHVVANPQAE [SEQ ID No. 11]
cell adhesion / cell repulsion on peptide spots, measured by the strength of the fluorescent signal [1]: repulsive

TPPNATEASKPQGTT
cell adhesion / cell repulsion on peptide spots, measured by the strength of the fluorescent signal [1]: strongest cell-repellent properties

YPYDVPDYA [HA epitope, reference compound]
cell adhesion / cell repulsion on peptide spots, measured by the strength of the fluorescent signal [1]: strong cell-attractive; also recorded: highest adhesion to cells
